Assay [1] addresses T1, PDHK2 (Homo sapiens, UniProt Q15119).
T1 construct: human PDHK2 (residues 16–407); His tag with TEV protease cleavage site (N, cleaved yes); made in house; host or cells: BL21 cells (E. coli)
The assay is described as follows: Soak of purified enantiomers into PDHK2 crystals. The following applies: 2 days, 2 mM. Type of assay: binding. As for the experimental part: CRM number 11 is a racemate of two enantiomers, 23 and 24. […] A PR was obtained for all three of the soaks of CRM number 11 in the full XChem screen that selected just the higher-affinity eutomer 23.
A final concentration of 2 mM of each of the 13 CRMs and 17 pure compounds was added into crystal drops of PDHK2 in triplicate for soak-time durations of 2–4 h, O/N and 2 days at 4 °C. In addition, the final compound concentrations of 0.5 mM and 1 mM were added into PDHK2 crystal drops in triplicate, which were subsequently left to soak for 2 days also at 4 °C. Glycerol was added as a cryoprotectant (at a final concentration of 20%) by ECHO acoustic transfer shortly before mounting the crystals in cryo-cooled pucks. All data were collected on beamline I04-1 in automated mode and autoprocessed using xia2[23].

The target of assay [2] is T1, PDHK2. The experiment in a line: FP assay. The following applies: PDHK2, purified enantiomer; read-out: Kd determined by FP assay. Type of assay: binding.
In assay [3] the target is T2, Hsp90 (Homo sapiens, UniProt P07900).
T2 construct: N-terminal domain of human Hsp90α (residues 1–236); made in house; host or cells: BL21 cells (E. coli)
The experiment in a line: KD by SPR titration of purified compounds. Type of assay: binding. The following applies: purified product of the CRM, 25 °C, average of at least two determinations, read-out: KD (SPR) (µM) of pure. The source says: Table 3 summarises for each of the purified compounds from these nine CRMs, the results of a manual soaking of the purified compound or the CRM into Hsp90 crystals, and the measurement for the purified compounds of solubility and KD measured by both SPR titration and by isothermal titration calorimetry (ITC). […] This leaves anomalies for seven CRMs that gave SM. One of these had low solubility (CRM 75), leaving six CRMs giving SM on repeated manual soaking to explain.
(§1) SPR experiments were conducted on T200 and T100 BIAcore instruments (GE Healthcare) at 25 °C. The His-tagged proteins were immobilised on a series of S NTA chips, and the running buffer with 10 mM HEPES, pH 7.4, 150 mM NaCl, 0.05% P-20, 0.025 mM EDTA and 1% DMSO was used. The sensor surface was regenerated between cycles to eliminate any carryover of protein and/or analyte. Details are as described previously.

Assay [4] has as its target T2, Hsp90. The assay is described as follows: SPR off-rate (koff) of crude reaction mixtures and starting materials. Format: binding. The following applies: 25 °C. As for the experimental part: (§2) The off-rate or koff for dissociation of each of the 83 CRMs from Hsp90 and PDHK2 was measured in duplicate by SPR and is shown in Supplementary Table 1. Failure to obtain a koff value for some CRMs (not determined, ND) was due to poor signal and was most marked for PDHK2.
(§3) Both proteins (human PDHK2 (residues 16–407) and N-terminal domain of human Hsp90α (residues 1–236)) were expressed as an N-terminal His tag fusion protein with a TEV protease cleavage in BL21 cells and purified on a Ni^2+ affinity followed by size-exclusion column, details as previously described[13],[27]. Uncleaved His-tagged variants were used in SPR experiments; tags were removed for crystallisation.
as §1

The target of assay [5] is T1, PDHK2. The description is as above. Format: binding. As for the experimental part: as §2, §3, §1
The target of assay [6] is T2, Hsp90. The experiment in a line: Isothermal titration calorimetry. As to conditions: read-out: KD measured by ITC for binding to Hsp90. The protocol: ITC experiments were conducted at 25 °C by titration of a stock sample of 100 µM compound onto a solution of 10 µM Hsp90 in a GE ITC200 instrument.
Where [7] appears, read: Hsp90, SPR, CRM (SM1, SM2: starting material), read-out: koff CRM.

Where two headings read alike, the source gives them in different places.

Take `COc1cc2c(cc1OC)[C@H](c1cccnc1)N(C(=O)c1ccc(O)cc1O)CC2` [Compound 23]: the “crystal structure from soak of purified enantiomer into PDHK2 crystals” value at PDHK2 [1] is “structures were obtained”. Moreover, the dissociation constant Kd at PDHK2 [2] is 0.14 µM.
As for `CN(C(=O)c1ccc(O)cc1O)c1ccc(C(N)=O)cc1` [SM2], the equilibrium dissociation constant (Kd) at Hsp90 [3] came out at 2 µM. In addition, the dissociation rate constant (koff) on Hsp90 [4] (setting [7]) worked out at 0.2 s⁻¹; at PDHK2 [5] (read-out: koff for PDHK2) it was 0.083 s⁻¹.
Turning to `COc1cc2c(cc1OC)[C@@H](c1cccnc1)N(C(=O)c1ccc(O)cc1O)CC2` [Compound 24], the “crystal structure from soak of purified enantiomer into PDHK2 crystals” value at PDHK2 [1] is “structures were obtained”. For the same molecule, the Kd at PDHK2 [2] amounted to 17 µM.
For the molecule `NC(=O)c1ccc(O)cc1O` [SM1], the Kd at Hsp90 [3] and on Hsp90 [6] was 2000 µM throughout. Also, the off-rate constant (koff) on Hsp90 [4] (setting [7]) is over 1 s⁻¹; on Hsp90 [4] (SPR, CRM unpurified (SM1/SM2 head lines: starting material), duplicate, 1 given to all koff >= 1 sec-1 (limit of assay sensitivity), read-out: koff s-1 Hsp90), at least 1 s⁻¹; on PDHK2 [5] (CRM unpurified (SM1/SM2 head lines: starting material), duplicate, 25 °C, 1 given to all koff >= 1 sec-1 (limit of assay sensitivity), read-out: koff s-1 PDHK2), at least 1 s⁻¹; at PDHK2 [5] (read-out: koff for PDHK2), over 1 s⁻¹.

For the origin of these results see paper PMC9814918, “Rapid optimisation of fragments and hits to lead compounds from screening of crude reaction mixtures” (Communications Chemistry, 2020).
